Source: patent US8455033B2, “Taste potentiator compositions and edible confectionery and chewing gum products containing same” (Kraft Foods Global Brands LLC, priority 2005, dated 2013)

What was measured:
[1] = test system: expert panel members; experiment: Sucrose Equivalent Value (SEV): expert panel matches the test solution to stock sucrose solutions; type: in vivo; conditions: for SEV (%): 500 ppm of a single potentiator in pH 3.2 buffered 5% sucrose; for effect on sweetness of the sucrose solution (dose response curve): 0 to 1000 ppm in pH 3.2 buffered 5% sucrose; for effect on sweetness (SEV) of sucrose solutions: 500 ppm in pH 3.2 buffered 0%, 3%, 5%, 7% and 9% sucrose
Method: One method of measuring the perceived sweetness of a solution is to match it with a stock sucrose solution of known concentration. In the present experiments, the compound of interest is added at a predetermined concentration to a pH 3.2 buffered solution containing 5% sucrose. A number of expert panel members then taste the solution and compare it to a battery of stock sucrose solutions ranging from 3% to 15% at increments of 1%. Each panel member decides which sucrose solution is equisweet with the solution containing the compound of interest. The mean value is then reported as the SEV. Results are reported to 1 decimal place.
In accordance with this methodology, 3-HB was added to a pH 3.2 buffered solution containing 5% sucrose to produce solutions containing from 0 to 1000 ppm 3-HB in 100 ppm increments. […] From FIG. 1 it is apparent that as the dosage of 3-HB increases so does the sweetness of the resultant solution. However the effect is non-linear with each incremental addition having a diminishing effect. The maximum sweetness attainable would appear to be about 7.9% SEV (based on a 5% sucrose solution).
The same methodology as described in Example 7 was repeated with 2,4-DHB in place of 3-HB, to produce the dose response curve for 2,4-DHB (FIG. 2). […] The maximum attainable sweetness would appear to be about 6.7% SEV (based on a 5% sucrose solution).
500 ppm of a sweetener potentiator was added to a pH 3.2 buffered solution containing 5% sucrose and the SEV of the resultant solution determined. […]
pH 3.2 buffered solutions were prepared containing 0%, 3%, 5%, 7% and 9% sucrose. 500 ppm of 2,4-DHB acid, 500 ppm of the sodium salt of 2,4-DHB and 500 ppm of the potassium salt of 2,4-DHB were added individually to each of the sucrose solutions. The SEV for each of the solutions was then determined.
500 ppm of 3-aminobenzoic acid and 500 ppm of 4-aminobenzoic acid were individually added to separate pH 3.2 buffered solutions containing 5% sucrose and the SEVs of the resultant solutions were determined. The SEV of 3-aminobenzoic acid was about 7%, i.e., increased the sweetness intensity of 5% sucrose to about 7%. The SEV of 4-aminobenzoic acid was about 5.5-6%, i.e., increased the sweetness intensity of 5% sucrose to about 5.5-6%.

[2] = 0.2% added to a 5% sucrose solution; Canadian Patent No. 1208966; cited from earlier work

Structure (SMILES)	SEV (%) [1] [%]	effect on sweetness of the sucrose solution (dose response curve) [1]	effect on sweetness (SEV) of sucrose solutions [1]	further results
O=C(O)c1cc(O)c(O)c(O)c1 [3,4,5-THB, 3,4,5-tryhydroxybenzoic acid]	5.1	–	–	–
O=C(O)c1cccc(O)c1 [3-HB, 3-hydroxybenzoic acid]	–	enhances the sweetness of the sucrose solution	–	–
O=C(O)c1ccc(O)cc1O [2,4-DHB, 2,4-dihydroxybenzoic acid]	–	enhances the sweetness of the sucrose solution	enhances the sweetness of the sucrose solution in every case	effect on sweetness of sucrose solution [2]: increase in sweetness
O=C(O)c1ccc(O)c(O)c1 [3,4-DHB, 3,4-dihydroxybenzoic acid]	6.4	–	–	–
O=C([O-])c1ccc(O)cc1O.[K+] [potassium salt of 2,4-DHB]	–	–	enhances the sweetness of the sucrose solution in every case	–
O=C([O-])c1ccc(O)cc1O.[Na+] [sodium salt of 2,4-DHB]	–	–	enhances the sweetness of the sucrose solution in every case	–
